Several values for one entry are separate records, joined by “and”; a condition that tells them apart may be missing. Identical values can stand only once.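 Where inhibition never reached the appropriate level, the endpoint shown equals the highest concentration tested. Otherwise, values were interpolated linearly from a five-concentration, 48-hour dose response in 96-well plates. GI50: concentration for 50% inhibition of growth. The concentration for full growth arrest is given as TGI.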
Key:
Test in all cases: DTP human tumour cell line panel, 48 h
NCI-H460 lung = system: NCI-H460 lung
SNB-19 CNS = system: SNB-19 CNS
CCRF-CEM leukemia = system: CCRF-CEM leukemia
SK-MEL-28 melanoma = system: SK-MEL-28 melanoma
HS 578T breast = system: HS 578T breast
SF-295 CNS = system: SF-295 CNS
ACHN renal = system: ACHN renal
HOP-92 NSCLC = system: HOP-92 NSCLC
HOP-62 NSCLC = system: HOP-62 NSCLC
RXF 393 renal = system: RXF 393 renal

SMILES	GI50 (NCI-H460 lung) [µM]	TGI (NCI-H460 lung) [µM]	GI50 (SNB-19 CNS) [µM]	TGI (SNB-19 CNS) [µM]	GI50 (CCRF-CEM leukemia) [µM]	TGI (CCRF-CEM leukemia) [µM]	GI50 (SK-MEL-28 melanoma) [µM]	TGI (SK-MEL-28 melanoma) [µM]	GI50 (HS 578T breast) [µM]	TGI (HS 578T breast) [µM]	GI50 (SF-295 CNS) [µM]	TGI (SF-295 CNS) [µM]	GI50 (ACHN renal) [µM]	TGI (ACHN renal) [µM]	GI50 (HOP-92 NSCLC) [µM]	TGI (HOP-92 NSCLC) [µM]	GI50 (HOP-62 NSCLC)	TGI (HOP-62 NSCLC)	TGI (RXF 393 renal) [µM]	GI50 (RXF 393 renal) [µM]
COc1ccc(-n2cc(-c3cc(OC)c(OC)c(OC)c3)[nH]c2=O)cc1Cl	> 100	> 100	42.6	> 100	> 100	> 100	> 100	> 100	34.9	> 100	48.9	> 100	> 100	> 100	15	> 100	51.7 µM	> 100 µM	–	–
CCCCCCC(=O)C/C(=N/NC(N)=S)C(=O)NC1C2CC3CC(C2)CC1C3 (centres undefined)	–	> 100	–	> 100	–	> 100	–	> 100	–	–	–	> 100	–	> 100	–	> 100	–	> 100 µM	> 100	–
CC(C)CCCC(=O)CCCCCCC(=O)CCN(O)C(=O)C(N)CO (centres undefined)	–	–	–	48.6	–	> 100	–	41.5	–	68.8	–	36.3	–	34.9	–	–	–	40.8 µM	27.4	–
NCCCn1c2c(c3ccc([N+](=O)[O-])cc3c1=O)C(=O)c1cc(Br)ccc1-2	0.000746	0.113	0.0379	–	0.0033	0.0159	0.0715	–	0.105	–	0.163	–	0.0187	0.0477	–	–	0.034 µM and 0.0329 µM	0.171 µM and 0.388 µM	–	0.318
Cc1ccc(-c2cc(=O)c3cc(C)c(C)c(C(=O)O)c3o2)cc1C	–	> 100	–	> 100	–	> 100	–	> 100	–	–	–	> 100	–	> 100	–	> 100	–	> 100 µM	> 100	–
O=C(Nc1ccc(Cl)cc1Cl)C(=O)C(C(=O)c1ccncc1)C1OC(=O)c2ccccc21 (centres undefined)	–	> 100	–	> 100	–	> 100	–	> 100	–	–	–	> 100	–	> 100	–	> 100	–	> 100 µM	> 100	–
CC(=O)O.[Au].c1ccc([PH+](c2ccccc2)c2ccccc2)cc1	17.2	74.7	4.11	15.8	0.404	2.34	1.63	3.66	–	–	2.89	> 100	2.86	8.53	3.02	5.1	13.7 µM	27.7 µM	2.86	1.42
N#CCc1ccc(C(C#N)/C(CCCC(=O)Nc2cccc([N+](=O)[O-])c2)=N/NC(N)=S)cc1 (centres undefined)	–	> 100	–	> 100	–	> 100	–	> 100	–	–	–	> 100	–	> 100	–	> 100	–	> 100 µM	> 100	–
C=C[C@H]1C[C@@H]2C[C@@H]3[C@H]4C/C=C\C(=O)NCCCC5NC(=O)C(=C(O)/C=C/[C@@H]4CC(=O)[C@H]3[C@@H]2[C@H]1C)C5=O (some centres undefined)	0.348	1.2	0.286	1	–	–	0.203	0.399	0.191	0.423	–	–	0.18	0.343	0.218	0.539	0.165 µM	0.31 µM	0.308	0.165
